# Reference: ChEMBL document CHEMBL3232929, “Thermodynamic and structural characterization of halogen bonding in protein-ligand interactions: a case study of PDE5 and its inhibitors” (J Med Chem, 2014)
# pKd: −log10 of the molar value.
# Target: cGMP-specific 3',5'-cyclic phosphodiesterase (Homo sapiens, UniProt O76074)
# Assay: Binding affinity to recombinant PDE5 catalytic domain (unknown origin) by ITC analysis
row,pKd,SMILES
1,6.12,CCCOc1ccc(S(=O)(=O)N2CCN(C)CC2)cc1-c1nc(CC)c(Cl)c(=O)[nH]1
2,6.82,CCCOc1ccc(S(=O)(=O)N2CCN(C)CC2)cc1-c1nc(CC)c(I)c(=O)[nH]1
3,6.38,CCCOc1ccc(S(=O)(=O)N2CCN(C)CC2)cc1-c1nc(CC)c(Br)c(=O)[nH]1
4,5.76,CCCOc1ccc(S(=O)(=O)N2CCN(C)CC2)cc1-c1nc(CC)c(F)c(=O)[nH]1
5,5.84,CCCOc1ccc(S(=O)(=O)N2CCN(C)CC2)cc1-c1nc(CC)cc(=O)[nH]1
